# Measurements from patent EP2951180B1, “2,6,7,8 SUBSTITUTED PURINES AS HDM2 INHIBITORS” (Merck Sharp & Dohme Corp., priority 2013, dated 2014).
# Target: T1, HDM2 (Homo sapiens, UniProt Q00987)
# T1 construct: Thioredoxin (N); made in house; host or cells: E. coli strain BL21(DE3)Rosetta
# Experiment: HDM2 FRET assay (inhibition of binding of FITC labeled p53-pocket peptide to HDM2)
# Details: Table 9; read-out: FRET IC50
# Method in brief: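 TR-FRET with 0.5 nM His-tagged recombinant HDM2, 3 nM FITC-labelled p53 peptide and 0.25 nM Tb-anti-His antibody in PBS, 0.01% BSA, 0.01% Tween-20, 0.1% DMSO. IC50 from em520/em495 ratio over 10-point dilutions, 4-parameter logistic fit.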
# T1 sequence (Q00987 17-125): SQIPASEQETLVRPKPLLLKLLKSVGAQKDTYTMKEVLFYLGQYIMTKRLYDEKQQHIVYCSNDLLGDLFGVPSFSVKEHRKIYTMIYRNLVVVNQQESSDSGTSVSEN
row,SMILES,IC50
1,"CC(C)CC1COCCN1c1nc2nc(-c3noc(=O)[nH]3)nc(N[C@H](C)C3CCC3)c2n1Cc1ccc(C(F)(F)F)cc1 (stereo partly drawn) [Example 9.101, 3-(6-{[(1R)-1-cyclobutylethyl]amino}-8-[3-(2-methylpropyl)morpholin-4-yl]-7-[4-(trifluoromethyl)benzyl]-7H-purin-2-yl)-1,2,4-oxadiazol-5(4H)-one]",9.8 nM
2,"C[C@@H](Nc1nc(-c2noc(=O)[nH]2)nc2nc(N(C)C3CCc4ccccc43)n(Cc3ccc(C(F)(F)F)cc3)c12)C1CCC1 (stereo partly drawn) [Example 9.102, 3-(6-{[(1R)-1-cyclobutylethyl]amino}-8-[2,3-dihydro-1H-inden-1-yl(methyl)amino]-7-[4-(trifluoromethyl)benzyl]-7H-purin-2-yl)-1,2,4-oxadiazol-5(4H)-one]",60.7 nM
3,"C[C@@H](Nc1nc(-c2noc(=O)[nH]2)nc2nc(N3CCCC3C3CCCCC3)n(Cc3ccc(C(F)(F)F)cc3)c12)C1CCC1 (stereo partly drawn) [Example 9.103, 3-(6-{[(1R)-1-cyclobutylethyl]amino}-8-(2-cyclohexylpyrrolidin-1-yl)-7-[4-(trifluoromethyl)benzyl]-7H-purin-2-yl)-1,2,4-oxadiazol-5(4H)-one]",31.9 nM
4,"CC(CN1CCCC1)CN(C)c1nc2nc(-c3noc(=O)[nH]3)nc(N[C@H](C)C3CCC3)c2n1Cc1ccc(C(F)(F)F)cc1 (stereo partly drawn) [Example 9.104, 3-(6-{[(1R)-1-cyclobutylethyl]amino}-8-[methyl(2-methyl-3-pyrrolidin-1-ylpropyl)amino]-7-[4-(trifluoromethyl)benzyl]-7H-purin-2-yl)-1,2,4-oxadiazol-5(4H)-one]",63.2 nM
5,"C[C@@H](Nc1nc(-c2noc(=O)[nH]2)nc2nc(N3CCCC3Cc3cccnc3)n(Cc3ccc(C(F)(F)F)cc3)c12)C1CCC1 (stereo partly drawn) [Example 9.105, 3-(6-{[(1R)-1-cyclobutylethyl]amino}-8-[2-(pyridin-3-ylmethyl)pyrrolidin-1-yl]-7-[4-(trifluoromethyl)benzyl]-7H-purin-2-yl)-1,2,4-oxadiazol-5(4H)-one]",14 nM
6,"C[C@@H](Nc1nc(-c2noc(=O)[nH]2)nc2nc(N3CCCCC3c3nccn3C)n(Cc3ccc(C(F)(F)F)cc3)c12)C1CCC1 (stereo partly drawn) [Example 9.106, 3-(6-{[(1R)-1-cyclobutylethyl]amino}-8-[2-(1-methyl-1H-imidazol-2-yl)piperidin-1-yl]-7-[4-(trifluoromethyl)benzyl]-7H-purin-2-yl)-1,2,4-oxadiazol-5(4H)-one]",11.5 nM
7,"Cc1noc(C2CCCCN2c2nc3nc(-c4noc(=O)[nH]4)nc(N[C@H](C)C4CCC4)c3n2Cc2ccc(C(F)(F)F)cc2)n1 (stereo partly drawn) [Example 9.107, 3-(6-{[(1R)-1-cyclobutylethyl]amino}-8-[2-(3-methyl-1,2,4-oxadiazol-5-yl)piperidin-1-yl]-7-[4-(trifluoromethyl)benzyl]-7H-purin-2-yl)-1,2,4-oxadiazol-5(4H)-one]",5.18 nM
8,"CC(C)CN1CCC(CN(C)c2nc3nc(-c4noc(=O)[nH]4)nc(N[C@H](C)C4CCC4)c3n2Cc2ccc(C(F)(F)F)cc2)C1 (stereo partly drawn) [Example 9.108, 3-(6-{[(1R)-1-cyclobutylethyl]amino}-8-(methyl{[1-(2-methylpropyl)pyrrolidin-3-yl]methyl}amino)-7-[4-(trifluoromethyl)benzyl]-7H-purin-2-yl)-1,2,4-oxadiazol-5(4H)-one]",144 nM
9,"C[C@@H](Nc1nc(-c2noc(=O)[nH]2)nc2nc(N3CCCCC3Cc3ccccc3)n(Cc3ccc(C(F)(F)F)cc3)c12)C1CCC1 (stereo partly drawn) [Example 9.109, 3-{8-(2-benzylpiperidin-1-yl)-6-{[(1R)-1-cyclobutylethyl]amino}-7-[4-(trifluoromethyl)benzyl]-7H-purin-2-yl}-1,2,4-oxadiazol-5(4H)-one]",59.9 nM
10,"CC1CCCCN1c1nc2nc(-c3noc(=O)[nH]3)nc(N[C@H](C)C3CCC3)c2n1Cc1ccc(C(F)(F)F)cc1 (stereo partly drawn) [Example 9.110, 3-(6-{[(1R)-1-cyclobutylethyl]amino}-8-(2-methylpiperidin-1-yl)-7-[4-(trifluoromethyl)benzyl]-7H-purin-2-yl)-1,2,4-oxadiazol-5(4H)-one]",10.3 nM
11,"COCC1CCCCN1c1nc2nc(-c3noc(=O)[nH]3)nc(N[C@H](C)C3CCC3)c2n1Cc1ccc(C(F)(F)F)cc1 (stereo partly drawn) [Example 9.111, 3-(6-{[(1R)-1-cyclobutylethyl]amino}-8-[2-(methoxymethyl)piperidin-1-yl]-7-[4-(trifluoromethyl)benzyl]-7H-purin-2-yl)-1,2,4-oxadiazol-5(4H)-one]",8.78 nM
12,"C[C@@H](Nc1nc(-c2noc(=O)[nH]2)nc2nc(N3CCCCC3c3ccc(F)cc3)n(Cc3ccc(C(F)(F)F)cc3)c12)C1CCC1 (stereo partly drawn) [Example 9.112, 3-(6-{[(1R)-1-cyclobutylethyl]amino}-8-[2-(4-fluorophenyl)piperidin-1-yl]-7-[4-(trifluoromethyl)benzyl]-7H-purin-2-yl)-1,2,4-oxadiazol-5(4H)-one]",9.55 nM
13,"C[C@@H](Nc1nc(-c2noc(=O)[nH]2)nc2nc(N3CCCCC3c3cccc(F)c3)n(Cc3ccc(C(F)(F)F)cc3)c12)C1CCC1 (stereo partly drawn) [Example 9.113, 3-(6-{[(1R)-1-cyclobutylethyl]amino}-8-[2-(3-fluorophenyl)piperidin-1-yl]-7-[4-(trifluoromethyl)benzyl]-7H-purin-2-yl)-1,2,4-oxadiazol-5(4H)-one]",25.9 nM
14,"C[C@@H](Nc1nc(C(=O)O)nc2nc(N3CCCCC3c3cccnc3)n(Cc3ccc(C(F)(F)F)cc3)c12)C1CCC1 (stereo partly drawn) [Example 9.114, 6-{[(1R)-1-cyclobutylethyl]amino}-8-(2-pyridin-3-ylpiperidin-1-yl)-7-[4-(trifluoromethyl)benzyl]-7H-purine-2-carboxylic acid]",110 nM
15,"C[C@@H](Nc1nc(C(=O)O)nc2nc(N3CCCCC3c3ccncc3)n(Cc3ccc(C(F)(F)F)cc3)c12)C1CCC1 (stereo partly drawn) [Example 9.115, 6-{[(1R)-1-cyclobutylethyl]amino}-8-(2-pyridin-4-ylpiperidin-1-yl)-7-[4-(trifluoromethyl)benzyl]-7H-purine-2-carboxylic acid]",16.6 nM
16,"C[C@@H](Nc1nc(C(=O)O)nc2nc(N3CCCCC3c3cccc(F)c3)n(Cc3ccc(C(F)(F)F)cc3)c12)C1CCC1 (stereo partly drawn) [Example 9.116, 6-{[(1R)-1-cyclobutylethyl]amino}-8-[2-(3-fluorophenyl)piperidin-1-yl]-7-[4-(trifluoromethyl)benzyl]-7H-purine-2-carboxylic acid]",14 nM
17,"C[C@@H](Nc1nc(C(=O)O)nc2nc(N3CCCCC3c3ccc(F)cc3)n(Cc3ccc(C(F)(F)F)cc3)c12)C1CCC1 (stereo partly drawn) [Example 9.117, 6-{[(1R)-1-cyclobutylethyl]amino}-8-[2-(4-fluorophenyl)piperidin-1-yl]-7-[4-(trifluoromethyl)benzyl]-7H-purine-2-carboxylic acid]",10.6 nM
18,"C[C@@H](Nc1nc(C(=O)O)nc2nc(N3CCOCC3)n(Cc3ccc(C(F)(F)F)cc3)c12)C1CCC1 [Example 9.118, 6-{[(1R)-1-cyclobutylethyl]amino}-8-morpholin-4-yl-7-[4-(trifluoromethyl)benzyl]-7H-purine-2-carboxylic acid]",51.8 nM
19,"CC(C)C1CCCCN1c1nc2nc(C(=O)O)nc(N[C@H](C)C3CCC3)c2n1Cc1ccc(C(F)(F)F)cc1 (stereo partly drawn) [Example 9.119, 6-{[(1R)-1-cyclobutylethyl]amino}-8-[2-(1-methylethyl)piperidin-1-yl]-7-[4-(trifluoromethyl)benzyl]-7H-purine-2-carboxylic acid]",9.16 nM
20,"CC(C)CC1CCCCN1c1nc2nc(C(=O)O)nc(N[C@H](C)C3CCC3)c2n1Cc1ccc(C(F)(F)F)cc1 (stereo partly drawn) [Example 9.120, 6-{[(1R)-1-cyclobutylethyl]amino}-8-[2-(2-methylpropyl)piperidin-1-yl]-7-[4-(trifluoromethyl)benzyl]-7H-purine-2-carboxylic acid]",5.32 nM
21,"C[C@@H](Nc1nc(C(=O)O)nc2nc(N3CCc4ccccc4C3)n(Cc3ccc(C(F)(F)F)cc3)c12)C1CCC1 [Example 9.121, 6-{[(1R)-1-cyclobutylethyl]amino}-8-(3,4-dihydroisoquinolin-2(1H)-yl)-7-[4-(trifluoromethyl)benzyl]-7H-purine-2-carboxylic acid]",10.6 nM
22,"C[C@@H](Nc1nc(C(=O)O)nc2nc(N3CCCCC3C3CCCCC3)n(Cc3ccc(C(F)(F)F)cc3)c12)C1CCC1 (stereo partly drawn) [Example 9.122, 6-{[(1R)-1-cyclobutylethyl]amino}-8-(2-cyclohexylpiperidin-1-yl)-7-[4-(trifluoromethyl)benzyl]-7H-purine-2-carboxylic acid]",4.59 nM
23,"C[C@@H](Nc1nc(C(=O)O)nc2nc(NC(C)(C)c3ccccc3)n(Cc3ccc(C(F)(F)F)cc3)c12)C1CCC1 [Example 9.123, 6-{[(1R)-1-cyclobutylethyl]amino}-8-[(1-methyl-1-phenylethyl)amino]-7-[4-(trifluoromethyl)benzyl]-7H-purine-2-carboxylic acid]",1.85 nM
24,"C[C@@H](Nc1nc(C(=O)O)nc2nc(N3CCCc4ccccc43)n(Cc3ccc(C(F)(F)F)cc3)c12)C1CCC1 [Example 9.124, 6-{[(1R)-1-cyclobutylethyl]amino}-8-(3,4-dihydroquinolin-1(2H)-yl)-7-[4-(trifluoromethyl)benzyl]-7H-purine-2-carboxylic acid]",10.4 nM
25,"C[C@@H]1COCCN1c1nc2nc(-c3noc(=O)[nH]3)nc(N[C@H](C)C3CCC3)c2n1Cc1ccc(C(F)(F)F)cc1 [Example 9.125, 3-(6-{[(1R)-1-cyclobutylethyl]amino}-8-[(3R)-3-methylmorpholin-4-yl]-7-[4-(trifluoromethyl)benzyl]-7H-purin-2-yl)-1,2,4-oxadiazol-5(4H)-one]",6.72 nM

# Same assay, conditions: Table 10; read-out: FRET IC50
row,SMILES,IC50
1,"C[C@@H](Nc1nc(C(=O)O)nc2nc(COc3ccccc3)n(Cc3ccc(C(F)(F)F)cc3)c12)C1CCC1 [Example 10.1, (R)-6-((1-cyclobutylethyl)amino)-8-(phenoxymethyl)-7-(4-(trifluoromethyl)benzyl)-7H-purine-2-carboxylic acid]",37.5 nM
